Test results as given in paper PMC4541410 (Scientific Reports, 2015).
Where a SMILES comes first, the peptide text is derived from it.

How the values were obtained:
[1] = tested on: preexisting antibodies in sera from HIV-1-infected patients; test: Sandwich ELISA: cross-reactivity of peptides with preexisting antibodies in HIV-1-infected patients; assay type: binding, human; settings: peptide coated at 10 μg/ml, serially diluted sera, 37 °C 1 h, A450
Method: A sandwich ELISA was conducted to determine the cross-reactivity of the peptides with the preexisting antibodies in HIV-1-infected patients. […] The wells were then blocked with 1% gelatin, followed by addition of 50 μl of serially diluted sera from HIV-1-infected patients and incubation at 37 °C for 1 h. Then, HRP-labeled goat-anti-human IgG (Abcam, UK) and TMB were added sequentially. A450 was determined with an ELISA reader (Ultra 384, Tecan).

N36 (gp41 NHR peptide) = molecular target: T1, N36 (gp41 NHR peptide) (Human immunodeficiency virus type 1 group M subtype B, UniProt P04578); test: CD spectroscopy and thermal midpoint analysis of peptide/N36 complexes; assay type: physicochemical, HIV-1
T1 construct: gp41 NHR (“N36”, 546-581); made in house; host or cells: chemical solid-phase FMOC synthesis
Method: Briefly, each peptide or peptide mixture was dissolved in phosphate-buffered saline (PBS: 50 mM sodium phosphate and 150 mM NaCl, pH 7.2) at the final concentration of 10 μM and incubated at 37 °C for 30 min before cooling down to 4 °C. The CD spectra of each sample were acquired on a Jasco spectropolarimeter (Model J-815, Jasco Inc., Japan) at 4 °C using a 5 nm bandwidth, 0.1 nm resolution, 0.1 cm path length and an average time of 5.0 sec. Spectra were corrected by the subtraction of a blank corresponding to the solvent composition of each sample. Thermal midpoint analysis was used to determine the temperature at which 50% of the 6-HB formed by the CHR and NHR would decompose. It was monitored at 222 nm from 4 °C to 98 °C by applying a thermal gradient of 5 °C/min. The melting curve was smoothed and the midpoint of the thermal unfolding transition (Tm) values was calculated using Jasco software utilities as described above.

[2] = molecular target: T2, gp41 6-HB formation between N36 and C34 (Human immunodeficiency virus type 1 group M subtype B, UniProt P04578); test: biochemical; assay type: biochemical, HIV-1
T2 construct: gp41 NHR (“N36”, 546-581); made in house; host or cells: chemical solid-phase FMOC synthesis
Method: Inhibition of gp41 six-helix bundle formation by a testing peptide was determined with a sandwich ELISA described previously. […] A450 was determined by an ELISA reader (Ultra 384, Tecan).

94US_33931N (B) = settings: read-out: IC50 (nM), infection by primary isolate 94US_33931N (B); primary HIV-1 isolate, subtype B
[3] = tested on: T20-resistant HIV-1 variant V38A/N42D; assay type: cell-based
92TH009 (A/E) = settings: read-out: IC50 (nM), infection by primary isolate 92TH009 (A/E); primary HIV-1 isolate, subtype A/E
[4] = rat liver homogenate (100 mg wet tissue/2.5 ml PBS pH 7.2, 9,000 g supernatant), peptide 10 μg/ml, 37 °C, LC-MS; triplicate
Method: Chromatographic analyses were performed using an ODS-C8 column (5 μm, 100 mm × 2.0 mm ID) kept at ambient temperature. The mobile phase was composed of acetonitrile-water-formic acid in the ratio of 50:50:0.1 (v/v/v) at a flow rate of 0.3 mL/min. The sample injection volume was 10 μL. Acetonitrile was HPLC grade and other chemical reagents and solvents were analytical grade. A Thermo TSQ Quantum Discovery MAX triple-quadruple tandem mass spectrometer equipped with ESI source (San Jose, CA) and Surveyor LC pump were used for LC-MS analysis. Data acquisition and data processing were performed by using Xcalibur software and LCQuan 2.0 data analysis program (Thermo Finnigan), respectively. Optimized MS parameters were as below: 4800 V spray voltage, 40.0 psi sheath gas pressure, 1.0 psi auxiliary valve flow and 300 °C of capillary temperature. When running collision-induced dissociation (CID), the pressure was set to 1.5 mTorr.
The supernatants were collected.

BCF020 (Group O) = settings: read-out: IC50 (nM), infection by primary isolate BCF020 (Group O), primary HIV-1 isolate
[5] = tested on: T20-resistant HIV-1 variant N42T/N43K; assay type: cell-based
[6] = tested on: T20-resistant HIV-1 strains
[7] = tested on: T20-resistant HIV-1 variant V38E/N42S; assay type: cell-based
[8] = tested on: T20-resistant HIV-1 variant V38A; assay type: cell-based
92UG024 (D) = assay type: cell-based; settings: primary HIV-1 isolate, subtype D; read-out: IC50 (nM), infection by primary isolate 92UG024 (D)
in vivo = settings: male, Sprague-Dawley (SD), rat, plasma, iv, 1 mg/kg
HIV-1Bal (subtype B, R5) = settings: read-out: IC50, inhibition of infection by HIV-1Bal; M7 cells, 100 TCID50, p24 ELISA day 7; triplicate, repeated twice
Excerpt: (§1) Then, the culture supernatants were changed to fresh media. On the fourth day post-infection, culture supernatants were collected for detection of p24 antigen by ELISA. […] Then, the culture supernatants were changed to fresh media. On the fourth day post-infection, the culture supernatants were discarded and fresh media were complemented again. The supernatants were collected on the seventh day post-infection and tested for p24 antigen by ELISA as previously described. The percent inhibition of p24 production was calculated.

[9] = tested on: HIV-1IIIB (subtype B, X4); settings: read-out: IC50, inhibition of infection by HIV-1IIIB; MT-2 cells, 100 TCID50, p24 ELISA day 4; triplicate, repeated twice
Excerpt: as §1

93IN101 (C) = settings: read-out: IC50 (nM), infection by primary isolate 93IN101 (C); primary HIV-1 isolate, subtype C

T2 sequence (P04578 546-581): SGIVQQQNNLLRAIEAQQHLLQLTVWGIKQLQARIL
T1 sequence (P04578 546-581): as above

## CC[C@H](C)[C@H](NC(=O)[C@H](CO)NC(=O)[C@H](CCC(=O)O)NC(=O)[C@H](CCC(=O)O)NC(=O)[C@H](CCC(N)=O)NC(=O)[C@H](CCCCN)NC(=O)[C@H](CCCCN)NC(=O)[C@@H](NC(=O)[C@H](CCC(N)=O)NC(=O)[C@H](CCC(=O)O)NC(=O)[C@H](CCC(=O)O)NC(=O)[C@@H](NC(=O)[C@H](CCCCN)NC(=O)[C@H](CCCCN)NC(=O)[C@@H](NC(=O)[C@H](CC(C)C)NC(=O)[C@H](CCC(=O)O)NC(=O)[C@H](CCC(=O)O)NC(=O)[C@H](CO)NC(=O)[C@H](CCCCN)NC(=O)[C@H](CCCCN)NC(=O)[C@@H](NC(=O)[C@H](CC(C)C)NC(=O)[C@H](CCC(=O)O)NC(=O)[C@H](CCC(=O)O)NC(=O)[C@@H](NC(=O)[C@H](CCCCN)NC(=O)[C@H](CCCCN)NC(=O)[C@H](CC(=O)O)NC(=O)[C@H](Cc1c[nH]c2ccccc12)NC(=O)[C@H](CCC(=O)O)NC(=O)[C@H](CCC(=O)O)NC(=O)[C@H](Cc1c[nH]c2ccccc12)NC(=O)[C@@H](NC(=O)[C@H](CCSC)NC(C)=O)[C@@H](C)O)[C@@H](C)CC)[C@@H](C)CC)[C@@H](C)CC)[C@@H](C)CC)[C@@H](C)CC)C(=O)N[C@@H](CCCCN)C(=O)N[C@@H](CCCCN)C(N)=O [AP3] (Ac-MTWEEWDKKIEELIKKSEELIKKIEEQIKKQEESIKK-NH2)
[1]
  reactivity with antibodies in sera from five HIV-1-infected patients: none of the three artificial peptides AP1, AP2 and AP3 was recognized
N36 (gp41 NHR peptide); CD thermal denaturation at 222 nm, 4 to 98 °C, 5 °C/min, 10 μM in PBS pH 7.2
  Tm of complex with N36: 83.6 ^oC
N36 (gp41 NHR peptide); CD, peptide/N36 mixture 10 μM in PBS pH 7.2, 4 °C
  α-helix content of complex with N36: 77.84%
[2]
  IC50: 240 nM
[2]; AP3 versus AP1
  fold more potent than AP1 against 6-HB formation: about 30 fold
[2]; AP3 versus AP2
  fold more potent than AP2 against 6-HB formation: ~15 fold
94US_33931N (B)
  IC50: 10.2 ± 0.7 nM
[3]
  IC50: 31.3 ± 6.62 nM
92TH009 (A/E)
  IC50: 27.8 ± 5.5 nM
[4]
  in vitro metabolic stability in liver homogenate: significantly enhanced in vitro metabolic stability over T20
BCF020 (Group O)
  IC50: 21.9 ± 0.1 nM
[5]
  IC50: 35.2 ± 12.5 nM
[6]; AP3 versus AP2
  fold more effective than AP2 against T20-resistant strains: 2- to 4 fold
[6]; read-out: IC50 against T20-resistant HIV-1 strains (summary), over the T20-resistant strains of Table 1
  IC50: 13 to 90 nM
[7]
  IC50: 42.4 ± 11.6 nM
[8]
  IC50: 12.6 ± 2.66 nM
92UG024 (D)
  IC50: 16.5 ± 0.2 nM
In vivo
  MRT: 8.69 h
  half-life: 361 min
HIV-1Bal (subtype B, R5)
  IC50: 15.1 nM
[9]
  IC50: 3.06 nM
93IN101 (C)
  IC50: 16.3 ± 1.5 nM
